These results are taken from patent US20250144088A1, “INHALABLE FORMULATION FOR USE IN THE TREATMENT OF BACTERIAL LUNG INFECTIONS” (priority 2022, published 2025).

Broadly, the Tmax is the time at which the peak concentration occurs. The Cmax is the peak of the concentration-time curve.

Structures are written as SMILES. Where two headings read alike, the source gives them in different places.

Data set [1] deals with Mycobacterium tuberculosis strains. As to conditions: cited from earlier work.
For data set [2], the system named is J774 cells. The experiment in a line: High content analysis of drug-induced phospholipidosis (DIPL) and cytotoxicity in macrophage-like cells. The settings on record: mouse, 48 h. Type of data set: cell-based. The source says: FIG. 1: A macrophage-like cell line (J774 cells) were used to screen whether three different nanocarrier formulations differing in their lipid compositions (1: DOPC/Chol, 2: DMPC/DMPG or 3: pegylated DOPC/Chol) i) are cytotoxic to this cell type and protect the cells from BDQ-induced DIPL. A heat map was used to depict the number of cells with DIPL-induced abnormalities (first two left-hand columns) and cytotoxicity markers (columns on the right). Black fields indicate that <10% of the cells in the treatment groups were abnormal, whereas grey-to-white colored fields denote an increasing proportion of cells with abnormalities. The heatmap at the top depicts the positive control group for DIPL, which consisted of four known CADs (amiodarone, amytryptiline, azithromycin, and BDQ) administered to the cells in solution (no formulation). […] The numbers on the left-hand side of each heatmap denote the CAD dose (μM) and the total lipid concentration (μg/mL) added to each well. The values depicted the mean % abnormal cells from six replicate formulations tested in four different cell passage numbers.
High content analysis was initially used as a rapid screening tool to evaluate interactions between lipid-based nanocarrier (TargoSphere©) formulations applied as liquid dispersions and macrophage cells. […] Two of the formulations (DOPC/Chol and DMPG/DMPC) contained Fuc-C4-Chol as a C-type lectin receptor targeting ligand (+CLR). Four concentrations ranging from 15-700 μg/mL (total solid content) were tested. After an incubation time of 48 h three assays with different fluorescence markers were performed. […]
For high content analysis, images were documented using the Cytation™ 5 Cell Imaging Multi-Mode Reader (BioTek, Bad Friedrichshall, Germany) with a 40× objective in standard 2D imaging mode. For each well 6 pictures were analysed using the Gen5 software (BioTek, Bad Friedrichshall, Germany). […] For both dyes the fluorescence intensity values were measured. […] Area and size of the vacuoles were identified and measured based on negative staining. […]

The nature of data set [3]: In vivo pharmacokinetics, current example (i.v., i.n., p.o.), healthy Balb-c mice. The procedure:
Values represent the mean of n=6 animals per time point.
After 0.5, 3, 24, 48, 72 and 96 hours, the animals were sacrificed and samples were taken from the blood plasma, lung tissues, lung epithelial fluid and cellular fraction of the lung epithelial fluid. […]

The conditions of data set [4]: mouse, in vivo, po, 30 mg/kg; cited from earlier work.
The conditions of data set [5]: p.o. 25 mg/kg, HP-β-CD solution, Irwin, 2016, male Balb/c mice, cited from earlier work.
The mark [6] stands for this setting: Balb-c, mouse, in vivo, po, 25 mg/kg.

On to `CNCCC(O)(c1cccc2ccccc12)C(c1ccccc1)c1cc2cc(Br)ccc2nc1OC` (stereo not drawn) [M2, N-desmethyl-BDQ], for which, in data set [1], the “attenuated activity against Mycobacterium tuberculosis strains compared to BDQ” value is on record as 3- to 5 fold.

As for `CCCCc1oc2ccccc2c1C(=O)c1cc(I)c(OCCN(CC)CC)c(I)c1` [amiodarone], the “cells exhibiting abnormal phospholipid accumulation” value in data set [2] was ~100%.

Consider `CC[C@H]1OC(=O)[C@H](C)[C@@H](O[C@H]2C[C@@](C)(OC)[C@@H](O)[C@H](C)O2)[C@H](C)[C@@H](O[C@@H]2O[C@H](C)C[C@H](N(C)C)[C@H]2O)[C@](C)(O)C[C@@H](C)CN(C)[C@H](C)[C@@H](O)[C@]1(C)O` [azithromycin], for which, in data set [2], the “cells exhibiting abnormal phospholipid accumulation” value is given as ~100%.

Turning to `COc1nc2ccc(Br)cc2cc1[C@@H](c1ccccc1)[C@@](O)(CCN(C)C)c1cccc2ccccc12` [BDQ, bedaquiline], the “cells exhibiting abnormal phospholipid accumulation” value in data set [2] was ~100%. Also, the tmax in data set [3] (BDQ in plasma, p.o. 25 mg/kg, drug suspension, current example) is 0.5 h; in data set [3] (setting [6]) it was 24 h; in data set [4] it was 24 h; in data set [5] (BDQ in lung tissue) it was 8 h; in data set [5] (BDQ in plasma), 0.5 h. Besides, the Kp in data set [3] (Balb-c, mouse, in vivo) stood at 62; in data set [3] (Balb-c, mouse, in vivo, iv), 15; in data set [3] (Balb-c, mouse, in vivo, po), 11. In addition, in data set [3] (Balb-c, mouse, in vivo), the “increase in lung exposure after intrapulmonary administration” value is 3 fold. Also, the Tmax in data set [3] (setting [6]) worked out at 3 h. Further, the Cmax in data set [5] (BDQ in plasma) is 2900 ng/mL.
